Molecular target: T1, human TLR7 (Homo sapiens, UniProt Q9NYK1)
T1 sequence (Q9NYK1 27-1049): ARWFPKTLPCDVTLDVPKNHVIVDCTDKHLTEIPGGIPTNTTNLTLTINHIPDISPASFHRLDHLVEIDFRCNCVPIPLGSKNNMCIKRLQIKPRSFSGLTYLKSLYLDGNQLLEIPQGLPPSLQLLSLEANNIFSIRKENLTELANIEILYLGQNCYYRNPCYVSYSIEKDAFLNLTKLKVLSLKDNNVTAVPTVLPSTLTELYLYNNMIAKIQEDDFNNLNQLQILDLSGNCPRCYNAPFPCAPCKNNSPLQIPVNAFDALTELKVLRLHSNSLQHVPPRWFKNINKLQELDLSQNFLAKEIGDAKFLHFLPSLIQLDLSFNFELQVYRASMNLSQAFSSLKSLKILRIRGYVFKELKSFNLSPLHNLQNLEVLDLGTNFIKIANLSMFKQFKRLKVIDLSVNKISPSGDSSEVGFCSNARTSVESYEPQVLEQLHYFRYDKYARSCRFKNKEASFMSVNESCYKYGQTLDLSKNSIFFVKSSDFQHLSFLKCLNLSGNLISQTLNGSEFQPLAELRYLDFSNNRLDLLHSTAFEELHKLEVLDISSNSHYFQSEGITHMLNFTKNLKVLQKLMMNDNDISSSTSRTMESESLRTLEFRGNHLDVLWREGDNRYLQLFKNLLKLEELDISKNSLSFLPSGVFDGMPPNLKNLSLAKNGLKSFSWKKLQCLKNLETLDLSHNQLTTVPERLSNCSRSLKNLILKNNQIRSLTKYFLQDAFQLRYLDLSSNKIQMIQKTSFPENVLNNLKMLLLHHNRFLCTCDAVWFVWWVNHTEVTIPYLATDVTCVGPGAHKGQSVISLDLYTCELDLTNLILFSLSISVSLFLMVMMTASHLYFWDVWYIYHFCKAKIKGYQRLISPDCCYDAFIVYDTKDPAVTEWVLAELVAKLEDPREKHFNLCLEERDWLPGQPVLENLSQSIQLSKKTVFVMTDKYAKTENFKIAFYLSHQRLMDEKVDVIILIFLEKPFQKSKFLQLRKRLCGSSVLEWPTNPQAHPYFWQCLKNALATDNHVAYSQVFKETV
Assay: HEK293-Blue-hTLR-7 cells assay
Assay type: cell-based
Settings: HEK293-Blue-hTLR7 cells, R848 stimulation, 20 hrs, SEAP reporter; read-out: HEK/hTLR7 IC50
How it was run: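 HEK293-Blue-hTLR7 cells (NF-κB/AP-1-driven SEAP reporter) incubated with serially diluted compound (1% DMSO final) and R848 agonist for 20 h at 37 °C. Supernatant SEAP measured with QUANTI-Blue (2 h, 37 °C) by absorbance at 620-655 nm; antagonism seen as reduced reporter.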

| SMILES | IC50 |
| --- | --- |
| CO[C@@H]1CN(c2ccc3c(c2)CN2[C@H](C)CN(c4ccc(C#N)n5nccc45)C[C@H]32)CC[C@@H]1N [Example 105, 4-[(4R,10bS)-8-[(3R,4S)-4-amino-3-methoxy-1-piperidyl]-4-methyl-3,4,6,10b-tetrahydro-1H-pyrazino[2,1-a]isoindol-2-yl]pyrazolo[1,5-a]pyridine-7-carbonitrile] | 4.9 nM |
| CO[C@H]1CCN(c2ccc3c(c2)CN2[C@H](C)CN(c4ccc(C#N)n5nccc45)C[C@H]32)C[C@H]1N [Example 106, 4-[(4R,10bS)-8-[(3R,4S)-3-amino-4-methoxy-1-piperidyl]-4-methyl-3,4,6,10b-tetrahydro-1H-pyrazino[2,1-a]isoindol-2-yl]pyrazolo[1,5-a]pyridine-7-carbonitrile] | 22.6 nM |
| C[C@@H]1CN(c2ccc(C#N)n3nccc23)C[C@@H]2c3ccc(N4CC5CNCC(C4)O5)cc3CN12 [Example 107, 4-[(4R,10bS)-4-methyl-8-(9-oxa-3,7-diazabicyclo[3.3.1]nonan-3-yl)-3,4,6,10b-tetrahydro-1H-pyrazino[2,1-a]isoindol-2-yl]pyrazolo[1,5-a]pyridine-7-carbonitrile] | 14.5 nM |
| C[C@@H]1CN(c2ccc(C#N)n3nccc23)C[C@@H]2c3ccc(N4C[C@@H](N)[C@](C)(O)C4)cc3CN12 [Example 108, 4-[(4R,10bS)-8-[(3R,4R)-4-amino-3-hydroxy-3-methyl-pyrrolidin-1-yl]-4-methyl-3,4,6,10b-tetrahydro-1H-pyrazino[2,1-a]isoindol-2-yl]pyrazolo[1,5-a]pyridine-7-carbonitrile] | 17.5 nM |
| C[C@@H]1CN(c2ccc(C#N)n3nccc23)C[C@@H]2c3ccc(N4C[C@H](N)[C@@](C)(O)C4)cc3CN12 [Example 109, 4-[(4R,10bS)-8-[(3S,4S)-4-amino-3-hydroxy-3-methyl-pyrrolidin-1-yl]-4-methyl-3,4,6,10b-tetrahydro-1H-pyrazino[2,1-a]isoindol-2-yl]pyrazolo[1,5-a]pyridine-7-carbonitrile] | 28.1 nM |
| C[C@@H]1CN(c2ccc(C#N)n3nccc23)C[C@@H]2c3ccc(N4C[C@@H](N)[C@H](O)C4)cc3CN12 [Example 110, 4-[(4R,10bS)-8-[(3R,4R)-3-amino-4-hydroxy-pyrrolidin-1-yl]-4-methyl-3,4,6,10b-tetrahydro-1H-pyrazino[2,1-a]isoindol-2-yl]pyrazolo[1,5-a]pyridine-7-carbonitrile] | 19 nM |
| C[C@@H]1CN(c2ccc(C#N)n3nccc23)C[C@@H]2c3ccc(N4C[C@H](N)[C@@H](O)C4)cc3CN12 [Example 111, 4-[(4R,10bS)-8-[(3S,4S)-3-amino-4-hydroxy-pyrrolidin-1-yl]-4-methyl-3,4,6,10b-tetrahydro-1H-pyrazino[2,1-a]isoindol-2-yl]pyrazolo[1,5-a]pyridine-7-carbonitrile] | 14 nM |
| C[C@@H]1CN(c2ccc(C#N)n3ncc(F)c23)C[C@@H]2c3ccc(N4C[C@H](N)[C@@](C)(O)C4)cc3CN12 [Example 112, 4-[(4R,10bS)-8-[(3S,4S)-4-amino-3-hydroxy-3-methyl-pyrrolidin-1-yl]-4-methyl-3,4,6,10b-tetrahydro-1H-pyrazino[2,1-a]isoindol-2-yl]-3-fluoro-pyrazolo[1,5-a]pyridine-7-carbonitrile] | 11.4 nM |
| CO[C@@H]1CN(c2ccc3c(c2)CN2[C@H](C)CN(c4ccc(C#N)n5ncc(F)c45)C[C@H]32)C[C@H]1N [Example 113, 4-[(4R,10bS)-8-[(3R,4R)-3-amino-4-methoxy-pyrrolidin-1-yl]-4-methyl-3,4,6,10b-tetrahydro-1H-pyrazino[2,1-a]isoindol-2-yl]-3-fluoro-pyrazolo[1,5-a]pyridine-7-carbonitrile] | 6 nM |
